How the values were obtained:
IκBα kinase [1] = assay: Phosphorylation of IκBα by partially purified IκBα kinase (gel-based); assay type: biochemical, human
Protocol: Unless otherwise indicated, phosphorylation of IκBα was usually carried out at 37° C. for 1 hour in a reaction volume of 10 μl containing: an ATP regenerating system (50 mM Tris-HCl, pH 7.6, 5 mM MgCl2, 2 mM ATP, 10 mM creatine phosphate, 3.5 units/ml creatine kinase, 0.6 units/ml inorganic pyrophosphatase), 0.5 μl of in vitro translated ^35S-labeled IκBα, 2 μg/ml of recombinant RelA homodimer (to form complex with IκBα), 3 μM okadaic acid, 60 μM ubiquitin, 50 nM E1 (rabbit), 1 μM UBC4 (yeast) or GST-UBCh5 (human), and 0.5-3 μl of IκBα kinase containing fractions. In some experiments, HeLa fraction I (1 mg/ml) was used as a source of E2s. At the end of each reaction, SDS sample buffer was added to quench the reaction, and the samples were analyzed by SDS-PAGE (9%) followed by flourography. Phosphorylation of IκBα was quantitated by PhosphorImager analysis. Ubiquitination of IκBα has been described previously (Chen, Z. J. et al., Genes & Dev. 9:1586-1597 (1995)).

NF-κB = assay: Activation of NF-κB in vivo by agonists; assay type: cell-based; conditions: agonists including PMA and ionomycin, TNF-α, and LPS
IκBα kinase [2] = target: T1, IκBα kinase (Homo sapiens, UniProt O14920+O15111); assay: ELISA-based IκBα kinase assay (ELISA scheme 1), MEKK1-activated partially purified kinase; assay type: biochemical; conditions: 10 μM inhibitor added to activated kinase before the biotinylated peptide substrate
T1 construct: IC50 against IκBα kinase activity; FI; Km of IκBα kinase for ATP
T1 sequence (O14920 whole entry): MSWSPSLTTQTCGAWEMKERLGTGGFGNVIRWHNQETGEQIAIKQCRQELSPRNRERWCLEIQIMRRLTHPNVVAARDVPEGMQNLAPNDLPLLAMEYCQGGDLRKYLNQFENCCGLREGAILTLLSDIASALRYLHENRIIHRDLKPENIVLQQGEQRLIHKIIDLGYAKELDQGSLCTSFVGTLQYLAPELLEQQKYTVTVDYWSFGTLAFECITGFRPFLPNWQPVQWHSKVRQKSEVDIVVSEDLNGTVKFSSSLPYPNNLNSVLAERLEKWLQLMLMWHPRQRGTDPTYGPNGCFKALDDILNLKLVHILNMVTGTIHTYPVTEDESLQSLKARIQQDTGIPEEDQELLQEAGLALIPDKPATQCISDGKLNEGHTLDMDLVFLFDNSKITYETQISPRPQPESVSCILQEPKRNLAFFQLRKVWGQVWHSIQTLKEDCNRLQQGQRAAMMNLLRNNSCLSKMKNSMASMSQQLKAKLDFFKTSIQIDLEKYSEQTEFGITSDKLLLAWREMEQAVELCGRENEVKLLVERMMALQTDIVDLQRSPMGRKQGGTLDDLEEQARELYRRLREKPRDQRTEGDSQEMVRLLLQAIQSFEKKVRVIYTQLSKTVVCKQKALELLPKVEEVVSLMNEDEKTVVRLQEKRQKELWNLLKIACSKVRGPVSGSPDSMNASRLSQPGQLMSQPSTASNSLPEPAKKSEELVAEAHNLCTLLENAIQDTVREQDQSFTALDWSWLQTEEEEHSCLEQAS
T1 sequence (O15111 whole entry): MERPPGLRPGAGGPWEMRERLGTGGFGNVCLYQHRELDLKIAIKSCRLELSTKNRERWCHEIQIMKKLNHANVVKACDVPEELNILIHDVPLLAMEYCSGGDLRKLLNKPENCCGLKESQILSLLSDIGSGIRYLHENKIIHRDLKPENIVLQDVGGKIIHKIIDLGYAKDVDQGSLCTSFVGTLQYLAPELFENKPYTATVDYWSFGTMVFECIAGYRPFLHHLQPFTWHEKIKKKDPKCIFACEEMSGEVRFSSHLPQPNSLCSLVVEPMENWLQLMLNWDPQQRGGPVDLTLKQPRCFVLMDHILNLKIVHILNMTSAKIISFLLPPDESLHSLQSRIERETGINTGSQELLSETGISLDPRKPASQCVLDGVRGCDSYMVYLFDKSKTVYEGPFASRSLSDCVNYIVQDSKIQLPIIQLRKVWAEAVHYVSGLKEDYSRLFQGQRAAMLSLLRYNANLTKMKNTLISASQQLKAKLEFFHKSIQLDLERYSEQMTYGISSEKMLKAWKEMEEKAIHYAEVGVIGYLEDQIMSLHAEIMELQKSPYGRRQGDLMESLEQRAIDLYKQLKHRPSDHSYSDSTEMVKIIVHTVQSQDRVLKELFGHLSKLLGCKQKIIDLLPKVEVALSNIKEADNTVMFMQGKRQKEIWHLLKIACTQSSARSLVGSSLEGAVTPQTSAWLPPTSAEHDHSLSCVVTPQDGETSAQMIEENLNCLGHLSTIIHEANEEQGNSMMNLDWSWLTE
T1 sequence (Q9Y6K9 whole entry partner): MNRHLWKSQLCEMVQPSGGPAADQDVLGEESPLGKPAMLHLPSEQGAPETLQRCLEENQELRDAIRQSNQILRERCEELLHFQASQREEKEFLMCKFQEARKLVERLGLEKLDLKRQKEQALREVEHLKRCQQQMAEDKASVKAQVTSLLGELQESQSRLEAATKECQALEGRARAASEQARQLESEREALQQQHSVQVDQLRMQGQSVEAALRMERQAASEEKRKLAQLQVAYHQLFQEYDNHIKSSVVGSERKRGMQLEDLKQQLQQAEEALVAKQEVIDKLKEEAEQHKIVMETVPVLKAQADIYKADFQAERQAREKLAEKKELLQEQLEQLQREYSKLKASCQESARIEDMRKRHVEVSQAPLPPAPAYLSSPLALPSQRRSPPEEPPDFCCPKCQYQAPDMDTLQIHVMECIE
Protocol: IκBα kinase was prepared by first diluting S-100 HeLa cell extracts [1:10] with 50 mM HEPES pH 7.6 and 40% ammonium sulfate was added for 30 minutes on ice. Collected pellet was redissolved to a minimum volume, centrifuged, and filtered through a 0.22 μm filter. Sample was loaded onto a Superose-6 FPLC column equilibrated with 50 mM HEPES pH 7.6. 25 mM NaCl, 1 mM DTT, operated at 4° C. at 1 mL/min flow rate. Fractions were assayed for activity by the gel-shift assay. Active fractions peaked at ˜700 kD were collected, pooled, and protein concentration was determined.
ELISA scheme 1—Biotinylated peptide substrate at 500 μM was incubated with partially purified kinase alone, with 30 nM MEKK1Δ alone, or in combination for 2 hrs at 37° C. with 2.5 mM ATP, 10 mM DTT, 5 μM okadaic acid in the presence or absence of inhibitor. Kinase reactions were quenched by diluting [1:50] with PBS-BTE (PBS, 0.1% BSA, 0.05% Tween-20, 20 mM EDTA). […] Color development was performed with o-phenylenediamine dihydrochloride (Sigma FAST o-PD) and signals were recorded at 450 nm. Alternatively, peroxidase reaction was quenched with 3 N HCl and signals were read at 492 nm.
When control primary antibody which recognizes all IκBα species was used, all samples containing biotinylated peptide substrate produced peroxidase activity as detected by the o-PD conversion. […]

IκBα [3] = assay: Phosphorylation and ubiquitination of 35S-labeled IκBα in HeLa cell cytoplasmic extracts with okadaic acid; assay type: biochemical, human; conditions: 10 μM; in the presence of okadaic acid; FIG. 9
Description: ^35S-labeled IκBα was synthesized by in vitro translation, and used as a substrate for phosphorylation (bottom panel, short exposure) and ubiquitination (top panel, long exposure) assays in HeLa cell cytoplasmic extracts in the presence of okadaic acid (Chen et al., Genes and Dev. 9:1586-1597 (1995)). Various agents were included in the reaction to test their ability to inhibit the phosphorylation and ubiquitination of IκBα.

IκBα [4] = conditions: previously shown (Beg 1993; Henkel 1993; Sun 1993); cited from earlier work
IκBα kinase [5] = target: T1, IκBα kinase; assay: Polypeptide inhibition of 35S-IκBα phosphorylation by IκBα kinase (gel-based); assay type: biochemical; conditions: ubiquitination-activated kinase, 37° C., 40 min, FIG. 20
Protocol: An N-terminal fragment (residues 5-72) of IκBα was expressed in E. coli as a recombinant protein containing a poly-histidine (His6) tag at the N-terminus.Protein purification was accomplished by nickel affinity chromatography. As a control, the full-length IκBα (SEQ ID NO:9; Haskill (1991) Cell 65:1281) was also expressed and purified in a similar fashion.
Recombinant full-length IκBα or IκBα (5-72) was added at indicated concentration to 10 μl of reaction mixture containing an ATP regenerating system (50 mM Tris at pH 7.6, 5 mM MgCl2, 2 mM ATP, 10 mM phosphocreatine, 3.5 U/ml creatine phosphokinase, 0.6 U/ml inorganic pyrophosphatase), 60 μM Ubiquitin, 50 nM E1, 1 μM UBC4, 0.5 μl of in vitro translated ^35S-IκBα, 0.5 μl of IκBα kinase (fraction 19 from Superdex 200 column), and 3 μM okadaic acid. After incubation at 37° C. for 40 min., the reaction was quenched by the addition of SDS sample buffer, separated by electrophoresis on 9% SDS-polyacrylamide gel, and then analyzed by fluorography.

## COC(=O)[C@@]1(O)C[C@H]2O[C@]1(C)n1c3ccccc3c3c4c(c5c6ccccc6n2c5c31)C(=O)NC4 [K252a]
IκBα kinase [1]
  inhibition of phosphorylation of IκBα by partially purified IκBα kinase: inhibits
NF-κB
  inhibition of the activation of NF-κB in vivo: inhibit the activation of NF-κB in vivo
IκBα kinase [2]
  inhibition of MEKK1 dependent kinase activity: fully inhibited
IκBα [3]
  inhibition of phosphorylation and ubiquitination of IκBα in HeLa cell extracts: Inhibit

## Cc1ccc(S(=O)(=O)N[C@@H](CCCCN)C(=O)CCl)cc1 [TLCK, Nα-p-tosyl-L-lysine chloromethyl ketone]
IκBα [4]
  inhibition of phosphorylation and degradation of IκBα in vivo: inhibit

## N-tosyl-L-phenylalanine chloromethyl ketone [TPCK]
IκBα [4]
  inhibition of phosphorylation and degradation of IκBα in vivo: inhibit

B1: IκBα (5-72): N-terminal fragment (residues 5-72) of IκBα, recombinant from E. coli with N-terminal His6 tag (protein)
chain: HHHHHHAERPQEWAMEGPRDGLKKERLLDDRHDSGLDSMKDEEYEQMVKELQEIRLEPQEVPRGSEPWKQQLTE
IκBα kinase [5]
  inhibition of phosphorylation of 35S-IκBα by purified IκBα kinase: inhibition
IκBα kinase [5]; listed as amino acid residues 5-72 of IκBα
  inhibition of phosphorylation of 35S-IκBα by purified IκBα kinase: selectively inhibits

B2: full-length IκBα: recombinant full-length IκBα (SEQ ID NO:9), expressed and purified as control (protein, listed as Homo sapiens)
chain: MFQAAERPQEWAMEGPRDGLKKERLLDDRHDSGLDSMKDEEYEQMVKELQEIRLEPQEVPRGSEPWKQQLTEDGDSFLHLAIIHEEKALTMEVIRQVKGDLAFLNFQNNLQQTPLHLAVITNQPEIAEALLGAGCDPELRDFRGNTPLHLACEQGCLASVGVLTQSCTTPHLHSILKATNYNGHTCLHLASIHGYLGIVELLVSLGADVNAQEPCNGRTALHLAVDLQNPDLVSLLLKCGADVNRVTYQGYSPYQLTWGRPSTRIQQQLGQLTLENLQMLPESEDEESYDTESEFTEFTEDELPYDDCVFGGQRLTL
IκBα kinase [5]
  inhibition of phosphorylation of 35S-IκBα by purified IκBα kinase: inhibition
